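Interpolation was linear, between the two tested concentrations surrounding the appropriate level; five concentrations were tested over 48 hours in 96-well plates. The concentration for 50% growth inhibition is given as GI50.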 Active and inactive are the calls of the source. Cut-off read from the data, not from the text of the source: active = GI50 up to about 1.1 µM and inactive = higher. Bridge positions count the residues as written; N and C are the ends. Peptide text beside a SMILES is read from it. * marks the point of attachment. Cbz = O=C(OCc1ccccc1)*
Experiments:
Assay in all cases: inhibition of tumour cell growth, NCI panel, 48 h
HOP-62 = system: HOP-62
HOP-92 = system: HOP-92
HT-29 = system: HT-29
Hs-578T = system: Hs-578T
IGROV-1 = system: IGROV-1
MCF7 = system: MCF7
MDA-MB-231 = system: MDA-MB-231
MDA-MB-435 = system: MDA-MB-435
MDA-N = system: MDA-N
Malme-3M = system: Malme-3M
OVCAR-3 = system: OVCAR-3
OVCAR-4 = system: OVCAR-4
OVCAR-5 = system: OVCAR-5
SF-295 = system: SF-295
SK-MEL-28 = system: SK-MEL-28
SK-MEL-2 = system: SK-MEL-2
SNB-19 = system: SNB-19
SW-620 = system: SW-620
T47D = system: T47D
UACC-62 = system: UACC-62

| SMILES | GI50 (HOP-62) | GI50 (HOP-92) | GI50 (HT-29) | GI50 (Hs-578T) | GI50 (IGROV-1) | GI50 (MCF7) | GI50 (MDA-MB-231) | GI50 (MDA-MB-435) | GI50 (MDA-N) | GI50 (Malme-3M) | GI50 (OVCAR-3) | GI50 (OVCAR-4) | GI50 (OVCAR-5) | GI50 (SF-295) | GI50 (SK-MEL-28) | GI50 (SK-MEL-2) | GI50 (SNB-19) | GI50 (SW-620) | GI50 (T47D) | GI50 (UACC-62) |
| --- | --- | --- | --- | --- | --- | --- | --- | --- | --- | --- | --- | --- | --- | --- | --- | --- | --- | --- | --- | --- |
| Cc1ccc(S(=O)(=O)O)cc1.c1cc2c(c(NC3=NCCN3)c1)CCCC2 | > 100 µM (inactive) | > 100 µM (inactive) | 99.5 µM (inactive) | > 100 µM (inactive) | > 100 µM (inactive) | > 100 µM (inactive) | > 100 µM (inactive) | > 100 µM (inactive) | > 100 µM (inactive) | > 100 µM (inactive) | > 100 µM (inactive) | > 100 µM (inactive) | > 100 µM (inactive) | > 100 µM (inactive) | > 100 µM (inactive) | > 100 µM (inactive) | > 100 µM (inactive) | 56.2 µM (inactive) | > 100 µM (inactive) | > 100 µM (inactive) |
| O=C(CSc1nc(O)nc2[nH]cnc12)Nc1ccccc1 | 52.8 µM (inactive) | > 100 µM (inactive) | > 100 µM (inactive) | 75 µM (inactive) | > 100 µM (inactive) | 44.6 µM (inactive) | > 100 µM (inactive) | 53.1 µM (inactive) | 57.5 µM (inactive) | > 100 µM (inactive) | > 100 µM (inactive) | > 100 µM (inactive) | > 100 µM (inactive) | 86.9 µM (inactive) | > 100 µM (inactive) | > 100 µM (inactive) | > 100 µM (inactive) | 66.4 µM (inactive) | > 100 µM (inactive) | 80.7 µM (inactive) |
| CC(=O)OC1O[C@@H](C(C)(C)O)CC[C@@H]1[C@H]1CC[C@@]2(C)C3=C(CC[C@]12C)[C@@]1(C)C[C@@H](OC(=O)CC(C)(O)CC(=O)O)[C@H](OC(C)=O)C(C)(C)C1CC3 (stereo not given in full) | 18.8 µM (inactive) | 16.7 µM (inactive) | 20.1 µM (inactive) | 19.5 µM (inactive) | 19.2 µM (inactive) | 18.3 µM (inactive) | 23 µM (inactive) | 16.8 µM (inactive) | 19.2 µM (inactive) | 17.4 µM (inactive) | 18.6 µM (inactive) | 18 µM (inactive) | 18.3 µM (inactive) | 17.5 µM (inactive) | 16.3 µM (inactive) | 16.4 µM (inactive) | 17.7 µM (inactive) | 17.5 µM (inactive) | 19.8 µM (inactive) | 27.7 µM (inactive) |
| CNC(=O)C1CCCCNC(=O)CCC(NC(=O)OCc2ccccc2)C(=O)N1 (stereo not drawn) (Cbz-Glu-Lys-NHMe; lactam 1-2; configuration not given here) | > 100 µM (inactive) | > 100 µM (inactive) | > 100 µM (inactive) | > 100 µM (inactive) | > 100 µM (inactive) | > 100 µM (inactive) | > 100 µM (inactive) | > 100 µM (inactive) | > 100 µM (inactive) | > 100 µM (inactive) | > 100 µM (inactive) | > 100 µM (inactive) | > 100 µM (inactive) | > 100 µM (inactive) | > 100 µM (inactive) | > 100 µM (inactive) | > 100 µM (inactive) | > 100 µM (inactive) | > 100 µM (inactive) | > 100 µM (inactive) |
| O=C(Nc1ccccc1)c1cc(S(=O)(=O)Nc2nc3cccnc3[nH]2)c(SSc2cc(Cl)c(C(=O)Nc3ccccc3)cc2S(=O)(=O)Nc2nc3cccnc3[nH]2)cc1Cl | > 100 µM (inactive) | > 100 µM (inactive) | > 100 µM (inactive) | > 100 µM (inactive) | > 100 µM (inactive) | > 100 µM (inactive) | > 100 µM (inactive) | > 100 µM (inactive) | > 100 µM (inactive) | > 100 µM (inactive) | > 100 µM (inactive) | > 100 µM (inactive) | > 100 µM (inactive) | > 100 µM (inactive) | > 100 µM (inactive) | > 100 µM (inactive) | > 100 µM (inactive) | > 100 µM (inactive) | > 100 µM (inactive) | > 100 µM (inactive) |
| CC(=O)OC1C(C)OC(OC(=O)C2CCC3C(C2)OC2(CC(OC(=O)/C=C/c4ccccc4)C(C)CO2)C32CO2)C(OC2OC(C)C(O)C(OC(C)=O)C2O)C1O (stereo not given) | < 0.012 µM (active) | < 0.01 µM (active) | < 0.01 µM (active) | < 0.01 µM (active) | < 0.01 µM (active) | < 0.01 µM (active) | < 0.01 µM (active) | < 0.01 µM (active) | < 0.01 µM (active) | < 0.01 µM (active) | < 0.01 µM (active) | < 0.01 µM (active) | < 0.01 µM (active) | < 0.01 µM (active) | < 0.01 µM (active) | < 0.01 µM (active) | < 0.01 µM (active) | < 0.01 µM (active) | < 0.01 µM (active) | < 0.01 µM (active) |
| CN(C)CCCN1c2ccccc2CCc2cccc([N+](=O)[O-])c21 | 16.5 µM (inactive) | 14.4 µM (inactive) | 14.6 µM (inactive) | 23.3 µM (inactive) | 16.9 µM (inactive) | 16.8 µM (inactive) | 25.2 µM (inactive) | 16.7 µM (inactive) | 16.2 µM (inactive) | 16.9 µM (inactive) | 16.3 µM (inactive) | 18 µM (inactive) | 28.8 µM (inactive) | 16.5 µM (inactive) | 13.4 µM (inactive) | 26.5 µM (inactive) | 47.2 µM (inactive) | 17.7 µM (inactive) | 13.7 µM (inactive) | 18.5 µM (inactive) |
| O=C1c2ccccc2-c2c1c1ccccc1c(=O)n2CCO | 5.4 µM (inactive) | 29.5 µM (inactive) | 7.14 µM (inactive) | 29.8 µM (inactive) | 20.5 µM (inactive) | 4.41 µM (inactive) | 46 µM (inactive) | > 72.9 µM (inactive) | 51.8 µM (inactive) | 26.5 µM (inactive) | 74 µM (inactive) | 33.2 µM (inactive) | > 100 µM (inactive) | 11.8 µM (inactive) | > 76.6 µM (inactive) | 39.6 µM (inactive) | 6.1 µM (inactive) | 7.29 µM (inactive) | 23.6 µM (inactive) | 11.5 µM (inactive) |
| CC(=O)OC1COC(Nc2nc(N)n(C)c(=O)c2N=O)C(OC(C)=O)C1OC(C)=O (stereo not given) | > 10 µM (inactive) | > 10 µM (inactive) | > 10 µM (inactive) | > 10 µM (inactive) | > 10 µM (inactive) | > 10 µM (inactive) | > 10 µM (inactive) | > 10 µM (inactive) | > 10 µM (inactive) | > 10 µM (inactive) | > 10 µM (inactive) | > 10 µM (inactive) | > 10 µM (inactive) | > 10 µM (inactive) | > 10 µM (inactive) | > 10 µM (inactive) | > 10 µM (inactive) | > 10 µM (inactive) | > 10 µM (inactive) | > 10 µM (inactive) |
| COc1ccccc1NC1Oc2cc3c(cc2C(c2cc(OC)c(OC)c(OC)c2)C1C)OCO3 (stereo not given) | 5.26 µM (inactive) | 3.24 µM (inactive) | 2.11 µM (inactive) | 6.44 µM (inactive) | 3.24 µM (inactive) | 2.65 µM (inactive) | 1.78 µM (inactive) | 0.242 µM (active) | 0.358 µM (active) | 0.383 µM (active) | 1.52 µM (inactive) | 6.37 µM (inactive) | 6.64 µM (inactive) | 0.689 µM (active) | > 25.1 µM (inactive) | 5.85 µM (inactive) | 6.56 µM (inactive) | 1.19 µM (inactive) | 5.86 µM (inactive) | 1.53 µM (inactive) |
| Cc1[nH]n(-c2ncc(C(=O)O)c(=O)[nH]2)c(=O)c1CCO | > 100 µM (inactive) | > 88.1 µM (inactive) | > 83.8 µM (inactive) | > 100 µM (inactive) | > 100 µM (inactive) | > 92.7 µM (inactive) | > 100 µM (inactive) | > 100 µM (inactive) | > 100 µM (inactive) | > 100 µM (inactive) | > 100 µM (inactive) | > 100 µM (inactive) | > 100 µM (inactive) | > 100 µM (inactive) | > 100 µM (inactive) | > 100 µM (inactive) | > 100 µM (inactive) | > 100 µM (inactive) | > 100 µM (inactive) | > 100 µM (inactive) |
| NC1OC(COC(=O)c2ccccc2)C(O)C(OC(=O)c2ccccc2)C1OC(=O)c1ccccc1 (stereo not given) | 22.7 µM (inactive) | 35.2 µM (inactive) | 17.3 µM (inactive) | 15.1 µM (inactive) | 16.9 µM (inactive) | 23.9 µM (inactive) | 18.7 µM (inactive) | 21.7 µM (inactive) | 22.3 µM (inactive) | 16.7 µM (inactive) | 25.2 µM (inactive) | 35.5 µM (inactive) | 24.3 µM (inactive) | 17.2 µM (inactive) | 20.2 µM (inactive) | 29.9 µM (inactive) | 33 µM (inactive) | 19 µM (inactive) | 35.5 µM (inactive) | 14.1 µM (inactive) |
| CN1C/C(=C\c2cccs2)C2=NC(=S)NC(c3cccs3)C2C1 (stereo not given) | > 100 µM (inactive) | 33.6 µM (inactive) | 68.7 µM (inactive) | > 100 µM (inactive) | 46.3 µM (inactive) | 35.6 µM (inactive) | > 100 µM (inactive) | 43.9 µM (inactive) | 66.1 µM (inactive) | 16 µM (inactive) | 76.4 µM (inactive) | 29.5 µM (inactive) | > 100 µM (inactive) | 42.8 µM (inactive) | 93.3 µM (inactive) | > 100 µM (inactive) | > 100 µM (inactive) | > 100 µM (inactive) | 24.9 µM (inactive) | 81.1 µM (inactive) |

From ChEMBL document CHEMBL1201862, “PubChem BioAssay data set” (2004)
